Source: patent US4614714A (priority 1982, dated 1986)
Entries after “also recorded” stand apart in the source; their conditions may differ. Counter-ions that a name gives are not always drawn. Like-named read-outs stand apart in the source and are kept apart here. One block for each compound: values may come before it.

Legend:
[1] = target: T1, novel L-glutamic acid oxidase (Streptomyces sp, UniProt Q8L3C7); assay: Effects of various additives on the activity of the novel enzyme; assay type: biochemical, Streptomyces sp. X-119-6; design: from the cultured product of an actinomycete newly isolated from a soil sample; made in house; host or cells: cultured product of the natural (non-recombinant) actinomycete strain, purified
T1 sequence (Q8L3C7 15-390 limits assumed): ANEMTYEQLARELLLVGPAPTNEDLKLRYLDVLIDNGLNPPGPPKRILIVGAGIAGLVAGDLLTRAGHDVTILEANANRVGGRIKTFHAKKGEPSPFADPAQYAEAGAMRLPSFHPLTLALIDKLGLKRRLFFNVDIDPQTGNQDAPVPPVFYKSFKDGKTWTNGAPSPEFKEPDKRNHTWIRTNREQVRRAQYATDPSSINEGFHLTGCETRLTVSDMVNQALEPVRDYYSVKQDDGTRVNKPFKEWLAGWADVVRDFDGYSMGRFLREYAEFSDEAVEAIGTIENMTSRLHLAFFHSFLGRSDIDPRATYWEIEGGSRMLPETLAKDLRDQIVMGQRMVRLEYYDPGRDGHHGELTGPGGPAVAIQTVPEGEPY
T1 sequence (Q8L3C7 391-520 limits assumed): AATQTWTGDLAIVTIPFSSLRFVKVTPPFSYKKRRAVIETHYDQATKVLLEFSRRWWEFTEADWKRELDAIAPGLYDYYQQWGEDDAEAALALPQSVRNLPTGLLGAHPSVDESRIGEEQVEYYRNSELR
T1 sequence (Q8L3C7 521-701 limits assumed): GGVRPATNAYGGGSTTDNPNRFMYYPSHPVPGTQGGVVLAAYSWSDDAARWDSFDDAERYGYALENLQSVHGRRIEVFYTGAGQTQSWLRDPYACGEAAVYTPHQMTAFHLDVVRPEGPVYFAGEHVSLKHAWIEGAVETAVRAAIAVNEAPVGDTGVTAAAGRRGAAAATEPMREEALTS

[2] = tested on: lyophilized cell of E. coli, which exhibits L-glutamic acid decarboxylase activity; details: microorganism electrode, cited from earlier work; for Relative sensitivity ratio: glutamic acid = 100
[3] = target: T2, immobilized L-glutamic acid oxidase (Streptomyces sp, UniProt Q8L3C7); assay: Responses of the L-glutamic acid sensor of Example C1 to various amino acids; assay type: biochemical, Streptomyces sp. X-119-6
T2 construct: from the cultured product of an actinomycete newly isolated from a soil sample; made in house; host or cells: cultured product of the natural (non-recombinant) actinomycete strain; immobilized on a Cellophane membrane with glutaraldehyde
T2 sequence (Q8L3C7 15-390 limits assumed): T1 sequence (Q8L3C7 15-390 limits assumed)
T2 sequence (Q8L3C7 391-520 limits assumed): T1 sequence (Q8L3C7 391-520 limits assumed)
T2 sequence (Q8L3C7 521-701 limits assumed): T1 sequence (Q8L3C7 521-701 limits assumed)
Description: In FIG. 18, the sample solution 2 injected through inlet 1 is transferred by a peristaltic pump 4 together with oxygen saturated buffer 3 into a cell 5.
The results obtained by the measurement are shown as relative responses. The reaction was carried out in 0.1M of acetic acid-sodium acetate buffer at pH 5.5 and 30° C.

[4] = target: T1, novel L-glutamic acid oxidase; assay: Substrate specificity of the novel enzyme, oxygen electrode method
Description: The concentration of each substrate was 10 mM, and the reactions were carried out at pH 7.4 (0.1 M potassium phosphate buffer) and pH 6.0 (0.1 M acetate buffer).
That is, 1 ml of 0.1 M potassium phosphate buffer (pH 7.4) containing 10 mM sodium L-glutamate was charged into an oxygen electrode cell and 10 μl of an enzyme solution was added thereto to measure the oxygen consumption rate. One unit of enzyme was determined as the amount of enzyme which consumes 1μ mol of oxygen per minute at 30° C. in the absence of catalase (unit: hereinafter abbreviated as "U").

[5] = tested on: glutamic acid oxidase (known enzyme); details: cited from earlier work; for activity of the known enzyme: relative to L-glutamic acid; for relative activity of the known enzyme: velocity of enzymatic reaction for L-glutamic acid given as 100
[6] = tested on: glutamic acid oxidase (known enzyme); details: cited from earlier work
[7] = additive 1 mM, pH 7.4, no addition = 100
[8] = pH 5.5, read-out: Relative response (%)
[9] = pH 6, read-out: Relative Activity (%) pH 6.0, substrate 10 mM, pH 6.0 (0.1 M acetate buffer), relative to L-glutamic acid
[10] = pH 7.4, read-out: Relative Activity (%) pH 7.4, substrate 10 mM, pH 7.4 (0.1 M potassium phosphate buffer), relative to L-glutamic acid
[11] = pH 5.5; read-out: Relative response (%)
[12] = pH 6, read-out: Relative Activity (%) pH 6.0
[13] = pH 7.4, read-out: Relative Activity (%) pH 7.4
[14] = additive 1 mM, pH 7.4, no addition = 100, read-out: Relative activity

Compound: O=C(O)c1cc[c]([Hg][Cl])cc1 [PCMB, pchloromercuribenzoate]
inhibition of the activity of the novel enzyme ([1]; additive 1 mM, pH 7.4): about 45%
Relative activity [1, 7]: 55.6

Compound: [Ca+2].[Cl-].[Cl-] [CaCl2]
Relative activity [1, 7]: 100.0

Compound: C[C@H](N)C(=O)O [Alanine]
Relative sensitivity ratio [2]: 0.5

Compound: CC(C)[C@H](N)C(=O)O [L-Valine]
activity at 2000 µM [3, 8]: < 0.1%
activity at 10000 µM [4, 9]: < 0.1%
activity at 10000 µM [4, 10]: < 0.1%

activity at 2000 µM [3, 11]: < 0.1%
activity at 10000 µM [4, 12]: < 0.1%
activity of the novel enzyme (in words) ([4]; pH 7.4): substantially no activity
activity at 10000 µM [4, 13]: < 0.1%
Compound: N[C@@H](Cc1c[nH]cn1)C(=O)O [L-Histidine]
activity of the known enzyme [5]: 6.8%
relative activity of the known enzyme [5]: 6.8

Compound: N[C@@H](Cc1ccc(O)cc1)C(=O)O [L-Tyrosine]
activity at 10000 µM [4, 9]: < 0.1%
activity at 10000 µM [4, 10]: < 0.1%

activity at 1000 µM [1, 14]: 101%
Compound: CCN(CC)C(=S)S [DDTC, diethyldithiocarbamate]

Compound: N[C@@H](CS)C(=O)O [L-Cysteine]
activity at 2000 µM [3, 8]: < 0.1%
activity at 10000 µM [4, 9]: < 0.1%
activity at 10000 µM [4, 10]: < 0.1%

Compound: [N-]=[N+]=[N-].[Na+] [NaN3]
Relative activity [1, 7]: 100.6

activity at 2000 µM [3, 11]: 100%
activity at 10000 µM [4, 12]: 100%
activity at 10000 µM [4, 13]: 100%
Compound: N[C@@H](CCC(=O)O)C(=O)O [L-Glutamic acid]

Compound: c1ccc(-c2ccccn2)nc1 [α,α'-dipyridyl]
activity at 1000 µM [1, 14]: 94.4%

Compound: CCN1C(=O)C=CC1=O [NEM, N--ethylmaleimide]
activity at 1000 µM [1, 14]: 94.4%

Compound: [Cl][Cu][Cl] [CuCl2, cupric chloride]
inhibition of the known enzyme (in words) [6]: completely inhibited
inhibition of the activity of the novel enzyme (in words) ([1]; additive 1 mM, pH 7.4): not inhibited at all

Compound: [Cu+] [copper ions]
inhibition of the known enzyme (in words) [6]: Substantially completely inhibited; also recorded: markedly inhibited

Compound: O=C(O)CN(CCN(CC(=O)O)CC(=O)O)CC(=O)O [EDTA, ethylenediaminetetraacetic acid]
activity at 1000 µM ([1]; pH 7.4, read-out: Relative activity): 96.5%

Compound: [Cl-].[K+] [KCl]
Relative activity [1, 7]: 111.1

Compound: N=C(N)NCCC[C@H](N)C(=O)O [Arginine]
Relative sensitivity ratio [2]: 0.6

Compound: N=C(N)NCCC[C@H](N)C(=O)O [L-Arginine]
activity at 2000 µM [3, 8]: < 0.1%
activity at 10000 µM [4, 9]: < 0.1%
activity at 10000 µM [4, 10]: < 0.1%

Compound: N[C@@H](CSSC[C@H](N)C(=O)O)C(=O)O [Cystine]
Relative sensitivity ratio [2]: 0.4

Compound: NCC(=O)O [Glycine]
activity at 2000 µM [3, 8]: < 0.1%
Relative sensitivity ratio [2]: 0.4
activity at 10000 µM [4, 9]: < 0.1%
activity at 10000 µM [4, 10]: < 0.1%

Relative activity [1, 7]: 102.1
Compound: O=S(=O)([O-])[O-].[Mn+2] [MnSO4]

Compound: NCCCC[C@H](N)C(=O)O [L-Lysine]
activity at 2000 µM [3, 8]: < 0.1%
activity at 10000 µM [4, 9]: < 0.1%
activity at 10000 µM [4, 10]: < 0.1%

Compound: [Cl][Ni][Cl] [NiCl2]
Relative activity [1, 7]: 96.5

Compound: O=C(O)[C@@H]1CCCN1 [L-Proline]
activity at 2000 µM [3, 8]: < 0.1%
activity at 10000 µM [4, 9]: < 0.1%
activity at 10000 µM [4, 10]: < 0.1%

Compound: NC(=O)CC[C@H](N)C(=O)O [Glutamine]
Relative sensitivity ratio, acetone treated cell ([2]; acetone treated cell was employed): 11
Relative sensitivity ratio [2]: 108

Compound: C[C@H](N)C(=O)O [L-Alanine]
activity at 2000 µM [3, 8]: < 0.1%
activity at 10000 µM [4, 9]: < 0.1%
activity at 10000 µM [4, 10]: < 0.1%

activity at 2000 µM [3, 11]: < 1%
activity at 10000 µM [4, 12]: < 0.1%
activity at 10000 µM [4, 13]: < 0.1%
Compound: NC(=O)C[C@H](N)C(=O)O [L-Asparagine]

Compound: O=S(=O)(O)c1cc(O)c(O)c(S(=O)(=O)O)c1 [Tiron, 4,5dihydroxy-1,3-benzenedisulfonic acid disodium salt]
activity at 1000 µM [1, 14]: 101%

Compound: N[C@@H](CC(=O)O)C(=O)O [L-Aspartic acid]
activity at 2000 µM [3, 8]: < 1%
activity of the known enzyme [5]: ≤ 0.1%
activity of the novel enzyme (in words) ([4]; pH 6.0): substantially no activity; also recorded: substantially no action
activity at 10000 µM [4, 9]: < 0.1%
activity at 10000 µM [4, 10]: 0.6%
Relative Activity (%) pH 6.0 ([4]; substrate 10 mM, pH 6.0 (0.1 M acetate buffer), relative to L-glutamic acid): ≤ 0.1%

Compound: N[C@@H](Cc1c[nH]c2ccccc12)C(=O)O [Tryptophan]
Relative sensitivity ratio [2]: 0.4

Compound: N[C@@H](Cc1c[nH]c2ccccc12)C(=O)O [L-Tryptophan]
activity at 2000 µM [3, 8]: < 0.1%

Compound: NC(=O)CC[C@H](N)C(=O)O [L-Glutamine]
activity at 2000 µM [3, 8]: < 2%
activity of the known enzyme [5]: 8.4%
relative activity of the known enzyme [5]: 8.4
activity at 10000 µM [4, 9]: < 0.1%
activity of the novel enzyme (in words) ([4]; pH 7.4): substantially no activity
activity at 10000 µM [4, 10]: < 0.1%

Relative activity [1, 7]: 107.6
Compound: [F-].[Na+] [NaF]

Relative activity [1, 7]: 90.3
Compound: O=S(=O)([O-])[O-].[Zn+2] [ZnSO4]

activity at 1000 µM [1, 14]: 97.8%
Compound: c1cnc2c(c1)ccc1cccnc12 [o-phenanthroline]

Compound: N[C@@H](CC(=O)O)C(=O)O [Aspartic acid]
Relative sensitivity ratio [2]: 1.0

Compound: CC(C)C[C@H](N)C(=O)O [L-Leucine]
activity at 2000 µM [3, 8]: < 0.1%
activity at 10000 µM [4, 9]: < 0.1%
activity at 10000 µM [4, 10]: < 0.1%

Compound: N[C@@H](CO)C(=O)O [L-Serine]
activity at 2000 µM [3, 8]: < 0.1%
activity at 10000 µM [4, 9]: < 0.1%

Relative activity [1, 7]: 100.7
Compound: [I-].[K+] [KI]

Compound: [Ba+2].[Cl-].[Cl-] [BaCl2]
Relative activity [1, 7]: 95.1

Relative activity [1, 7]: 93.8
Compound: O=S(=O)([O-])[O-].[Li+].[Li+] [Li2 SO4]

activity at 2000 µM [3, 11]: < 0.1%
activity at 10000 µM [4, 12]: < 0.1%
activity at 10000 µM [4, 13]: < 0.1%
Compound: N[C@@H](Cc1ccccc1)C(=O)O [L-Phenylalanine]

Compound: N[C@@H](CCC(=O)O)C(=O)O [Glutamic acid]
Relative sensitivity ratio [2]: 100

Compound: N[C@H](CCC(=O)O)C(=O)O [D-Glutamic acid]
activity at 2000 µM [3, 11]: < 0.1%
activity at 10000 µM [4, 9]: < 0.1%
activity of the novel enzyme (in words) ([4]; pH 7.4): substantially no activity
activity at 10000 µM [4, 10]: < 0.1%

Compound: CC[C@H](C)[C@H](N)C(=O)O [L-Isoleucine]
activity at 2000 µM [3, 8]: < 0.1%
activity at 10000 µM [4, 9]: < 0.1%
activity at 10000 µM [4, 10]: < 0.1%

Relative activity [1, 7]: 93.8
Compound: O=S(=O)([O-])[O-].O=S(=O)([O-])[O-].O=S(=O)([O-])[O-].[Al+3].[Al+3] [Al2 (SO4)3]

activity at 2000 µM [3, 11]: < 0.1%
activity at 10000 µM [4, 12]: < 0.1%
activity at 10000 µM [4, 13]: < 0.1%
Compound: C[C@@H](O)[C@H](N)C(=O)O [L-Threonine]

Compound: NCCC[C@H](N)C(=O)O [L-Ornithine]
activity at 2000 µM [3, 8]: < 0.1%
activity at 10000 µM [4, 9]: < 0.1%
activity at 10000 µM [4, 10]: < 0.1%

Relative activity [1, 7]: 97.2
Compound: [Cl-].[Cl-].[Sr+2] [StCl2]

Compound: mercury ions
inhibition of the known enzyme (in words) [6]: Substantially completely inhibited

Compound: CSCC[C@H](N)C(=O)O [L-Methionine]
activity at 2000 µM [3, 8]: < 0.1%
activity at 10000 µM [4, 9]: < 0.1%
activity at 10000 µM [4, 10]: < 0.1%

Compound: [Cl-].[Na+] [NaCl]
Relative activity ([1]; l-glutamic acid oxidase, pH 7.4, 1000 µM): 95.8
